In patent US12303474B2, “S-enantiomerically enriched compositions of beta blockers for treating amyotrophic lateral sclerosis” (priority 2013, dated 2025):
Like-named read-outs stand apart in the source and are kept apart here.

How the values were obtained:
[1] = test system: G93A SOD1 B6SJL hybrid (G93A) model; assay: Disease progression score (JAX SOP) in G93A SOD1 transgenic mice; settings: 30 mg/kg/day vs. placebo
From the text: The disease progression score is based on the JAX SOP (Ludolph A C, Bendotti C, Blaugrund E, Hengerer B, Loffler J P, Martin J, Meininger V, Meyer T, Moussaoui S, Robberecht W, Scott S, Silani V, Van Den Berg L H (ENMC Group For The Establishment Of Guidelines For The Conduct Of Preclinical And Proof Of Concept Studies In ALS/MND Models). 2007, which is incorporated by reference).

[2] = test system: G93A SOD1 B6SJL hybrid (G93A) model; assay: Body weight and body composition (lean mass, fat mass; NMR scans) in G93A SOD1 transgenic mice; type: in vivo; settings: 30 mg/kg/d; for Average Δ body weight / Average Δ fat mass / Average Δ lean mass: per day alive after disease onset
From the text: (§1) Transgenic mice over-expressing a high copy number (25 copies) of mutated human SOD1 gene with a G93A point mutation, i.e., B6SJL-TgN [SOD1-G93A]1 Gur (G1H-G93A transgenic mice, JR2726; Hemizygote) (Gurney M E, et al., Science, 264, 1772-1775, 1994) (“G93A SOD1 B6SJL hybrid (G93A) model”), were used.
[…] […] There were 16 mice in the S-oxprenolol group.
The primary endpoint was survival, humanely defined as the ability of the animal to right itself in 30 seconds after being laid on its side. Secondary endpoints were body weight, body composition, spontaneous activity and food intake. Body weight of the animals was assessed weekly until onset of disease. Additionally, body composition (fat mass and lean body mass) was assessed using NMR scans (EchoMRI-100, Echo Medical Systems, Houston, USA) every 4 days. After onset of disease, body weight and body composition were assessed every two days until the end of the study. All personal handling the animals was strictly blinded to the randomized treatment allocation.
To study the effect of S-oxprenolol on body weight, body weight was monitored over time.
To study the effect of the test compounds on lean body mass, lean mass was determined at the end of the study.
To study the effect of the test compounds on fat mass, the fat mass were determined at the end of the study.
To study the effect of S-oxprenolol on body weight, body weight was monitored over time. […] The number of all mice in the population is indicated as “n” in at the bottom of FIGS. 20A-20C.
To study the effect of the test compounds on lean body mass, lean mass was determined at the end of the study. […] The number of all mice in the population is indicated as “n” in at the bottom of FIGS. 20D-20F.
To study the effect of the test compounds on fat mass, the fat mass were determined at the end of the study. […] The number of all mice in the population is indicated as “n” in at the bottom of FIGS. 20G-20I.

[3] = test system: G93A SOD1 B6SJL hybrid (G93A) model; settings: 30 mg/kg/d; for Heart / gastrocnemius: end of study
Method: as §1
To study the effect of the test compounds on skeletal muscle atrophy, the skeletal muscle mass were determined at the end of the study.
The number of all mice in the population is indicated as “n” in at the bottom of FIGS. 21A-21C.
The number of all mice in the population is indicated as “n” in at the bottom of FIGS. 20D-20F.
The number of all mice in the population is indicated as “n” in at the bottom of FIGS. 21G-21I.

With `Nc1nc2ccc(OC(F)(F)F)cc2s1` [rilutek] the “HR Progression from score 1 to score 2 (FIG. 17)” value [1] was 0.82, the “HR Progression from score 1 to score 3 (FIG. 19)” value [1] was 0.76 and the “HR Progression from score 2 to score 3 (FIG. 18)” value [1] was 0.68. It also gave a Δ body weight ([2]; all mice) of -5.10 ± 0.35 g, a Δ fat mass ([2]; all mice) of -1.91 ± 0.15 g and a Δ lean mass ([2]; all mice) of -3.71 ± 0.27 g. The “Average Δ body weight” value ([2]; all mice) was -121.6 ± 15.2 mg/day, the “Average Δ fat mass” value ([2]; all mice) was -50.1 ± 6.1 mg/day and the “Average Δ lean mass” value ([2]; all mice) was -92.31 ± 15.84 mg/day. For the same molecule, the Δ body weight ([2]; female mice) was -4.49 ± 0.46 g, the Δ fat mass ([2]; female mice) was -1.76 ± 0.21 g and the Δ lean mass ([2]; female mice) was -3.31 ± 0.37 g. The “Average Δ body weight” value ([2]; female mice) was -122.9 ± 25.7 mg/day, the “Average Δ fat mass” value ([2]; female mice) was -42.2 ± 6.1 mg/day and the “Average Δ lean mass” value ([2]; female mice) was -96.9 ± 24.2 mg/day. It also gave a Δ body weight ([2]; male mice) of -5.91 ± 0.43 g, a Δ fat mass ([2]; male mice) of -2.09 ± 0.22 g and a Δ lean mass ([2]; male mice) of -4.19 ± 0.38 g. The “Average Δ body weight” value ([2]; male mice) was -120.4 ± 17.9 mg/day, the “Average Δ fat mass” value ([2]; male mice) was -57.5 ± 11.3 mg/day and the “Average Δ lean mass” value ([2]; male mice) was -87.4 ± 21.1 mg/day. The “EDL (extensor digitorum longus)” value ([3]; all mice) was 6.71 ± 0.32 mg, the soleus ([3]; all mice) was 5.47 ± 0.39 mg and the Heart ([3]; all mice) was 103.5 ± 2.8 mg. The gastrocnemius ([3]; all mice) was 55.2 ± 3.0 mg, the “EDL (extensor digitorum longus)” value ([3]; female mice) was 6.28 ± 039 mg and the soleus ([3]; female mice) was 5.26 ± 0.48 mg. For the same molecule, the Heart ([3]; female mice) was 91.4 ± 2.3 mg, the gastrocnemius ([3]; female mice) was 54.1 ± 3.8 mg and the “EDL (extensor digitorum longus)” value ([3]; male mice) was 7.20 ± 0.51 mg. The soleus ([3]; male mice) was 5.72 ± 0.64 mg, the Heart ([3]; male mice) was 115.6 ± 2.4 mg and the gastrocnemius ([3]; male mice) was 58.3 ± 4.9 mg.
